This assay deals with Phakopsora pachyrhizi. As to the kind of experiment: Preventative control against Phakopsora pachyrhizi (Asian soybean rust) / soybean / leaf disc. Format: in vivo. The following applies: foliar, evaluation 11 to 14 days after inoculation, read-out: Combined inhibition (observed); for inhibition at 0.4 g/ha: single active ingredient at 0.4 g/ha; for inhibition at 0.8 g/ha: single active ingredient at 0.8 g/ha. The protocol:
Whole soybean plants are treated with the recited compositions of active ingredients four weeks after planting. One day after spraying application leaf discs are cut from the first trifoliate leaf. Five repetitions at each rate are conducted. The leaf discs are inoculated with Phakopsora pachyrhizi one day after treatment. Evaluation of the leaf discs is conducted 11 to 14 days after inoculation and the biological activity is derived from the relation of the treated compared to untreated, infested check plants. The rates of the active ingredients used are given in Tables 1 to 6 as g active ingredient (a.i.)/ha. Results from the tests outlined above are shown below in Tables 1 to 6. […] According to COLBY, in mathematical terms the synergism factor SF corresponds to O/E. In the agricultural practice an SF of […] indicates significant improvement over the purely complementary addition of activities (expected activity), while an SF of ≤0.9 in the practical application routine signals a loss of activity compared to the expected activity.

The inhibition is how much of the control response was suppressed.

Turning to `CCC(=O)Oc1c(OC)ccnc1C(=O)N[C@@H](C)C(=O)O[C@@H](C)[C@@H](C)c1ccccc1C` [A.03, [(1S,2S)-1-methyl-2-(o-tolyl)propyl](2S)-2-[(4-methoxy-3-propanoyloxy-pyridine-2-carbonyl)amino]propanoate], the inhibition at 0.4 g/ha stood at 10% and the inhibition at 0.8 g/ha is 42%. Also, the inhibition at 0.2 g/ha (single active ingredient at 0.2 g/ha) was found to be 0%.

On to `CON(Cc1ccc(-c2noc(C(F)(F)F)n2)cc1)C(=O)C1CC1` [B.01, N-methoxy-N-[[4-[5-(trifluoromethyl)-1,2,4-oxadiazol-3-yl]phenyl]methyl]cyclopropanecarboxamide], for which the inhibition at 0.8 g/ha was found to be 65%. Take `COC(C)C(=O)N(Cc1ccc(-c2noc(C(F)(F)F)n2)cc1)OC` (stereo not shown) [B.02, N,2-dimethoxy-N-[[4-[5-(trifluoromethyl)-1,2,4-oxadiazol-3-yl]phenyl]methyl]propanamide]: the inhibition at 0.4 g/ha turned out to be 64%.

Consider `CCN(Cc1ccc(-c2noc(C(F)(F)F)n2)cc1)C(=O)C(C)C` [B.03, N-ethyl-2-methyl-N-[[4-[5-(trifluoromethyl)-1,2,4-oxadiazol-3-yl]phenyl]methyl]propanamide], for which the inhibition at 0.4 g/ha came to 21% and the inhibition at 0.8 g/ha worked out at 55%. Regarding `CNC(=O)N(Cc1ccc(-c2noc(C(F)(F)F)n2)cc1)OC` [B.04, 1-methoxy-3-methyl-1-[[4-[5-(trifluoromethyl)-1,2,4-oxadiazol-3-yl]phenyl]methyl]urea], the inhibition at 0.4 g/ha was determined as 44%.

In the case of `CCNC(=O)N(Cc1ccc(-c2noc(C(F)(F)F)n2)cc1)OC` [B.06, 3-ethyl-1-methoxy-1-[[4-[5-(trifluoromethyl)-1,2,4-oxadiazol-3-yl]phenyl]methyl]urea], the inhibition at 0.4 g/ha worked out at 22%. For the compound `CCOC(=O)c1cnn(Cc2ccc(-c3noc(C(F)(F)F)n3)cc2)c1` [B.10, ethyl 1-[[4-[5-(trifluoromethyl)-1,2,4-oxadiazol-3-yl]phenyl]methyl]pyrazole-4-carboxylate], the inhibition at 0.4 g/ha turned out to be 55%.

(Values after US20250280828A1, “FUNGICIDAL COMPOSITIONS” (SYNGENTA CROP PROTECTION AG, priority 2020, published 2025).)
